# Measurements: patent US20030134901A1, “Lipoxin compounds and their use in treating cell proliferative disorders” (priority 1993, published 2003)
# Tests used:
# A549 cells = assay: A549 cell proliferation, MTT assay; format: cell-based, human
# Description: A microculture 3,(4,5-dimethylthiazoyl-2-yl) 2,5 (diphenyl-tetrazolium bromide) (MTT) assay, (Marshall, N. J., et al. (1995) A critical assessment of the use of microculture tetrazolium assays to measure cell growth and function. Growth Regul. 5: 69-84.), was used to examine the actions of LXs and other eicosanoids on cell proliferation. A549 cells and fibroblasts from exponential-phase maintenance cultures were counted and dispensed within replicate 96-well culture plates in 100 μl volumes of medium (˜2000 cells/well). Following 24 hours at 37° C., the culture medium was removed, and fresh medium (100 μl) containing either the compounds (5-1000 nM) or vehicle (medium plus 0.15% ethanol) was added to 4 replicates for each condition studied and the culture plates were then incubated for up to 96 hours at 37° C. in a 5% CO2 atmosphere. At the end of this period, 25 μl of freshly prepared MTT in HBSS (5 mg/ml) was added to the wells and the plates were incubated for 4 hours at 37° C. Dye solution was aspirated, wells were washed once with HBSS and dye taken up by the cells was extracted in 100 μl of isopropyl alcohol:1 N HCl (96:4, v/v) and quantitated at 570 nm using a microplate reader (Molecular Devices, Menlo Park, Calif.). In some experiments, cells were grown in 12-well culture plates, treated as above and enumerated using a Neubauer hemocytometer. Viability was assessed routinely using trypan blue exclusion assay. For the A549 cells and fibroblasts, a linear relation was established for the MTT values and cell number within the range of the experiments shown (r=0.995, P<0.005). A549 cells grown for 72 hours in the presence of the compounds (5-1000 nM) or vehicle (0.15% EtOH) were lysed with 0.25 N NaOH and the cellular protein content was determined by applying the Bio-Rad (Richmond, Calif.) microassay method using bovine serum albumin as standard. The mean cellular protein content in resting A549 cells was 46.6±1.5 pg/cell.
# [1] = target: T1, LXA4 specific binding sites of differentiated HL-60 cells (Homo sapiens, UniProt P25090); assay: 3H-LXA4 specific binding to differentiated HL-60 cells; conditions: competition, competitor 300 nM where printed
# T1 construct: endogenous in cells; host or cells: HL-60 cells differentiated with DMSO, retinoic acid or PMA; intact cells
# T1 sequence (P25090 1-351): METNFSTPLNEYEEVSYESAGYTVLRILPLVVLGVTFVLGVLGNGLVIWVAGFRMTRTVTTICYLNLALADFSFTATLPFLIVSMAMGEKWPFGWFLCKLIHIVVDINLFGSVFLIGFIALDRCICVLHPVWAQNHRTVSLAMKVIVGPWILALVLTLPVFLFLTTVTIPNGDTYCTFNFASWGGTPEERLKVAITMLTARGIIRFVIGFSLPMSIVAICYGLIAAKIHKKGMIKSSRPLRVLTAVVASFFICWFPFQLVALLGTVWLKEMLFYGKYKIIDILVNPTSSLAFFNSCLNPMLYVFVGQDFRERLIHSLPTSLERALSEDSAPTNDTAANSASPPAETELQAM
# Description: Preparation of [11,12-^3H]LXA4. Tritiation of 11,12-acetylenic LXA4 methyl ester was carried out under a custom tritiation service (NET-259:92-2326) by New England Nuclear (Boston, Mass.). Briefly, 11,12-acetylene methyl ester was characterized by UV absorbance and reverse-phase HPLC as in (Nicolaou, K. C. et al. (1985) J. Am. Chem. Soc. 107:7515) and exposed to tritium atmosphere in methylene chloride at room temperature. This incubation was stirred in the presence of Lindlar catalyst (1.0 mg from Fluka Chemicals) for˜1 h. The resulting mixture was stored in methanol and isolated using RP-HPLC. Tritiated products were chromatographed as methyl esters utilizing a gradient HPLC system equipped with a photodiode array rapid spectral detector (Serhan, C. N., Methods in Enzymology: Arachidonate Related Lipid Mediators, in Murphy R. C., Fitzpatrick, F. (eds.), vol. 187. Orlando, Fla., Academic, (1990), p. 167). This mixture contained both [11,12-^3H]LXA4 and [11,12-^3H]-11-trans-LXA4 methyl esters (˜1:3 ratio) as determined by coelution with synthetic standards. After RP-HPLC, fractions containing [11,12-^3H]LXA4 were collected, and extracted into ethyl acetate. The free acid was prepared by LiOH saponification (Fiore, S. et al. (1992) J. Biol. Chem. 267:16168). Material from these fractions, when injected into UV-electrochemical detection HPLC, gave greater than 90% of radioactivity associated with a tetraene-containing product that coeluted with synthetic LXA4. Materials that eluted with the retention time of authentic LXA4 in two HPLC systems were taken for binding experiments. The specific activity calculated for [11,12-^3H]LXA4 was 40.5 Ci/mmole.
# Cell cultures and differentiation. HL-60 cells were seeded in RPMI medium supplemented with 100 U/ml penicillin, 100 μg/ml streptomycin, and 10% fetal calf serum (Hyclone, Logan, Utah), incubated at 37° C. with 5% CO2 atmosphere in 250 ml flasks. Individual flasks containing ˜[…] next received dimethyl sulfoxide (DMSO) (1.12% v/v, 120 h) or retinoic acid (RA) (1 μM, 120 h) or phorbol myristate acetate (PMA) (20 nM, 48 h). Before performing binding assays, cells were washed twice in phosphate buffered saline (PBS), Ca^2+- and Mg^2+-free, enumerated and suspended at 20×10^6 cells/ml in Tris buffer (10 mM), pH 7.4 (Fiore, S. et al.(1992) J. Biol. Chem. 267:16168). Nitro blue tetrazolium reduction was performed to monitor induction of polymorphonuclear phenotype as in (Imaizumi, M. and Breitman, T. R. (1986) Blood 67:1273), and cell adherence was determined for induction of macrophage-like phenotype (Collins, S. J. (1987) Blood 70:1273). Human umbilical vein endothelial cells (HUVEC) maintained in culture third passage were obtained from Dr. M. Gimbrone (Brigham and Women's Hospital Department of Pathology).
# Ligand binding. ^3H-LXA4 and ^3H-LTB4 binding was performed essentially as in Fiore, S. et al.(1992) J. Biol. Chem. 267:16168. After suspending cells in Tris buffer 10 mM (pH 7.4, Ca^2+ 2.5 mM, Mg^2+ 1.2 mM), aliquots (0.5 ml) were incubated (20 min at 4° C.) with ^3H- ligands alone (0.3 nM) or in the presence of increasing concentrations of homoligands or other compounds (3-300 nM). The incubations were rapidly centrifuged (60 sec, 12,000 g) on silicon oil (d=1.028), and cell-associated radioactivity was determined by liquid scintillation counting (Wallac 1409, Pharmacia, Piscataway, N.J.). Binding experiments with HUVEC cells were performed in 12 well plates with 3.5×10^5 cells/well. After 10 min, wells were washed twice with PBS and cell-associated label was recovered by adding glacial acetic acid (0.5 ml). Results obtained from these assays were submitted for further analysis using the Ligand program (Elsevier-Biosoft, Cambridge, UK).
# human skin fibroblasts = assay: Fibroblast proliferation, MTT assay; format: cell-based; conditions: 100 nM, n=3
# Description: Human type II epithelial A549 cells from human lung carcinoma and normal human skin fibroblast (breast) were obtained from the American Type Culture Collection (Rockville, Md.). The A549 cell line originated from a human alveolar cell carcinoma and was a useful cell line because it was easily assessable and could be maintained in culture without contaminating tissue macrophages. (Lieber, M., et al (1976) A continuous tumor-cell line from a human lung carcinoma with properties of type II alveolar epithelial cells. Int. J Cancer Fibroblasts were utilized within their limited window of viability and their passage numbers were recorded (results are reported for cells from 3-5 passages). Epithelial A549 cells were seeded into T-75 cm^2 tissue culture flasks and maintained in F-12K medium supplemented with 10% heat-inactivated FBS, penicillin (50 U/mL) and streptomycin (50 (g/mL). Human PMN from healthy donors who had not taken ASA or other medications for at least two weeks were obtained by Ficoll-Hypaque gradient centrifugation and dextran sedimentation, (Böyum A. (1968) Isolation of mononuclear cells and granulocytes from human blood. […] Viability of A549 cells and PMN was determined by their ability to exclude trypan blue and were 95±2 and 97±1%, respectively.
# A microculture 3,(4,5-dimethylthiazoyl-2-yl) 2,5 (diphenyl-tetrazolium bromide) (MTT) assay, (Marshall, N. J., et al. (1995) A critical assessment of the use of microculture tetrazolium assays to measure cell growth and function. Growth Regul. 5: 69-84.), was used to examine the actions of LXs and other eicosanoids on cell proliferation. A549 cells and fibroblasts from exponential-phase maintenance cultures were counted and dispensed within replicate 96-well culture plates in 100 μl volumes of medium (˜2000 cells/well). […] Dye solution was aspirated, wells were washed once with HBSS and dye taken up by the cells was extracted in 100 μl of isopropyl alcohol:1 N HCl (96:4, v/v) and quantitated at 570 nm using a microplate reader (Molecular Devices, Menlo Park, Calif.). […]
structure (smiles),measurement,setting,value
"CCCCC[C@H](O)[C@H](O)/C=C/C=C/C=C\C=C\[C@@H](O)CCCC(=O)O [LXB4, (5S, 14R, 15S)-trihydroxy-6E, 8Z, 10E, 12E-eicosatetraenoic acid]",inhibition of A549 cell proliferation over time,"A549 cells; 1 μM, after 72 and 96 hours of treatment",inhibited A549 cell proliferation
same,% inhibition,"A549 cells; 10^−7 M, 72 hours at 37° C., mean ± SEM, 3 to 7 experiments",30.0 ± 8.5%
same,times more active than either LXA4 or dexamethasone,"A549 cells; concentrations of 0.5 and 1 μM, 72 hours",3 times
same,inhibition proliferation,"A549 cells; equimolar levels (100 nM), Table 1",~34%
same,displacement of 3H-LXA4 specific binding,[1],"Neither LXB4, LTB4, nor trihydroxyheptanoic acid (methyl ester) (300 nM) were able to displace"
same,inhibition of proliferation of fibroblasts,human skin fibroblasts,38.0%
